Results reported in patent publication US20230052517A1, “ELECTROCHEMICAL SENSING METHODS AND APPARATUS FOR DETERMINING DRUG UPTAKE AND RETENTION IN CELLS” (priority 2020, published 2023).
Read-outs that look alike come from different tables or passages of the source.

Legend:
[1] = tested on: A2780-s and A2780-cp ovarian cancer cells; assay: SECM electrochemical response of ovarian cancer cells to carboplatin (FcCH2OH regeneration); type: cell-based
Method: Carboplatin-susceptible (A2780-s) and carboplatin-resistant (A2780-cp) ovarian cancer cells were grown in petri dishes at 37° C. until a confluence of approximately 60 to 70% was reached. Cells were exposed to a PBS solution containing 1 mM ferrocenemethanol (FcCH2OH) at 37° C. for 45 minutes. Following this incubation, the petri dish was inserted into a scanning electrochemical microscope (SECM), equipped with a camera, fluorescence unit and a heating stage. Target cells were identified using an approach curve and a horizontal line scan was carried out across the cells every 5 to 10 minutes. The solution in the petri dish was exchanged for a PBS solution containing 2 mM carboplatin and 1 mM ferrocenemethanol (FcCH2OH). Horizontal line scans were carried out every 5 to 10 minutes to record the electrochemical response by the cells.

[2] = tested on: carboplatin-susceptible and carboplatin-resistant ovarian cancer cell line; assay: Voltammetric carboplatin uptake study in ovarian cancer cells; type: cell-based; settings: one carboplatin-susceptible and one carboplatin-resistant cell line
Method: Further work was done by the inventors^45 to evaluate the electrochemical detection of chemotherapeutic uptake by ovarian cancer cells, whereby an electrochemical characterization of carboplatin was evaluated for detection limits and pH dependence. Furthermore, bioelectrochemical studies quantified carboplatin uptake by ovarian cancer cells.

[3] = tested on: Pseudomonas aeruginosa PAO1 (wild type strain, containing efflux pumps); assay: Tobramycin uptake by DPV of the supernatant, PAO1 strain; type: cell-based; settings: for Percentage of Tobramycin in Supernatant, PAO1: 2 mM Tobramycin, 1X PBS, 0.4% glucose, 37° C., DPV on GCE at pH 3
Method: (§1) (i.e. 15 minutes; 30 minutes and 60 minutes). […] Integration underneath the curves provides the charge.
(§2) The uptake of another antibiotic, Tobramycin (2 mM) was analyzed in Pseudomonas aeruginosa using DPV. […] As summarized in TABLE 3, the concentration of the control remains stable over different times of incubation at 37° C. […] At 15 min, the hyper-susceptible PAO750 removes about 26% of Tobramycin, which is slightly more than the wild type. […] A concentration of 2 mM Tobramycin appears to have been too high for the cells to withstand. […] As both of these strains are not resistant to Tobramycin, cell lysis at prolonged incubation times was expected.

[4] = tested on: Pseudomonas aeruginosa PAO750 (hyper-susceptible strain, efflux pumps deleted); type: cell-based; settings: for Percentage of Tobramycin in Supernatant, PAO750: 2 mM Tobramycin, 1X PBS, 0.4% glucose, 37° C., DPV on GCE at pH 3
Method: as §1, §2

[5] = Control drug solution without bacterial cells incubated at 37° C., DPV; settings: for Percentage of Tobramycin in Supernatant, Control: 2 mM Tobramycin in 1X PBS, 0.4% glucose without bacterial cells
Method: DPV measurements of 1 mM Cip were taken and after incubation, centrifugation was performed at 4000 rpm for 10 min and the supernatant was collected.
Similarly uptake of Tobramycin (2 mM), was analyzed in Pseudomonas aeruginosa also using DPV. The control solutions were tested before and after incubation at 37° C. and with different incubation times at 37° C. (i.e. 15 minutes; 30 minutes and 60 minutes). […] Integration underneath the curves provides the charge. This charge is proportional to the number of molecules transferred during DPV recordings (see FIGS. 11-14).

[6] = tested on: Pseudomonas bacteria (PAO1 and PA262); settings: not told
Method: After 25 min of incubation, the bacteria suspension is centrifuged, cells are resuspended in PBS and drop-casted onto a 3-mm glassy carbon macroelectrode (see FIG. 1D). Other macroelectrode materials, such as gold, platinum, etc. could be employed in the same way. The electrode is then placed in a KCl solution and DPV is performed at a potential rage of zero to 1.0V. This potential range would be adjusted depending on the drug of interest.
When the electrode is placed in the KCl solution, various time intervals were applied before driving the oxidation reaction at the electrode.

N.N.O=C([O-])C1(C(=O)[O-])CCC1.[Pt+2] [carboplatin]
time for slope increase to relax back to its initial value ([1]; A2780-cp cells): 5 to 10 min
change of slope (peak current vs scan velocity) after drug exposure ([1]; A2780-cp cells, 2 mM carboplatin, 1 mM FcCH2OH): an increase in slope right after carboplatin exposure was observed
difference in SECM response between susceptible and resistant cells ([1]; A2780-s vs A2780-cp): A clear difference between carboplatin-susceptible and carboplatin-resistant cells
drug uptake detected by voltammetry [2]: demonstrated the detection of carboplatin uptake

NC[C@H]1O[C@H](O[C@H]2[C@H](O)[C@@H](O[C@H]3O[C@H](CO)[C@@H](O)[C@H](N)[C@H]3O)[C@H](N)C[C@@H]2N)[C@H](N)C[C@@H]1O [Tobramycin]
Percentage of Tobramycin in Supernatant, PAO1 ([3]; 15 minutes): 80%
Percentage of Tobramycin in Supernatant, PAO1 ([3]; 30 minutes): 81%
Percentage of Tobramycin in Supernatant, PAO1 ([3]; 60 minutes): 99%
uptake observation at prolonged incubation, PAO1 ([3]; 2 mM, 60 min): A similar effect is seen in PAO1
Tobramycin taken up from the solution by PAO1 ([3]; 2 mM, incubation times of 15 and 30 min): approximately 20%
time to establishment of equilibrium of intracellular and extracellular Tobramycin ([3]; PAO1, 2 mM): < 15 min
Percentage of Tobramycin in Supernatant, PAO750 ([4]; 15 minutes): 74%
Percentage of Tobramycin in Supernatant, PAO750 ([4]; 30 minutes): 95%
Percentage of Tobramycin in Supernatant, PAO750 ([4]; 60 minutes): 99%
Tobramycin removed by PAO750 ([4]; 2 mM, 15 min): about 26%
uptake observation at prolonged incubation, PAO750 ([4]; 2 mM, 30 min): the uptake is failing, probably due to cell lysis of PAO750
stability of Tobramycin control solution (DPV currents before and after incubation) ([5]; 2 mM): do not vary, indicating stable 2 mM Tobramycin concentrations
Percentage of Tobramycin in Supernatant, Control ([5]; 15 minutes): 99%
Percentage of Tobramycin in Supernatant, Control ([5]; 30 minutes): 99%
Percentage of Tobramycin in Supernatant, Control ([5]; 60 minutes): 95%

O=C(O)c1cn(C2CC2)c2cc(N3CCNCC3)c(F)cc2c1=O [ciprofloxacin]
DPV current of drop-casted bacteria after incubation with drug (export from the bacteria) [6]: significant increase in current
dependence of export current peak on wait time [6]: a longer wait time results in a higher current peak
